Laboratory results from PMC11741006, “Raman active diyne-girder conformationally constrained p53 stapled peptides bind to MDM2 for visualisation without fluorophores” (RSC Chemical Biology, 2025).
Residues, ends and D or L forms follow the SMILES beside them. *: point of attachment. FITC = O=C1OC2(c3ccc(O)cc3Oc3cc(O)ccc32)c2ccc(NC(=S)*)cc21; Ahx = NCCCCCC(=O)O

Key:
MDMX (1–134) = molecular target: T1, MDMX (1–134) (Homo sapiens, UniProt O15151); assay: Fluorescence polarisation direct binding assay, MDMX; details: direct FP binding; 10 nM FITC peptide in Tris buffer pH 7.6; protein serially diluted 10 μM to 9 pM; 3 h, room temperature; quadratic ligand depletion fit; n = 3
T1 construct: tested against MDMX (1–134); His6-GST (TEV-cleavable) (N, cleaved yes); made in house; host or cells: E. coli Rosetta 2(DE3)pLysS
T1 sequence (O15151 1-134): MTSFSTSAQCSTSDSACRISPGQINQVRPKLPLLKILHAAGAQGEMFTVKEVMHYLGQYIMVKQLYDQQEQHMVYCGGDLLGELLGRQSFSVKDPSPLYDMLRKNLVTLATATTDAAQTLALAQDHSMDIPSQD
Experimental: The binding properties of the peptide were assessed using a biophysical FP assay. Specifically, a direct binding assay was conducted to calculate the Kd values of the fluorescent peptide ligands binding to the target proteins (eqn (S3), ESI ^†).[29] […] The peptides were first tested for binding with MDM2 (1–138). […] Peptide solutions were made up to a concentration of 10 nM and varying concentrations of protein (10 μM to 9 pM) were incubated with the peptide with FP measurements taken after 3 h (Fig. 4). […] The final analogue examined for its binding of MDM2 was 5FITC, the diyne negative control. […]
resuspension buffer. […]
The His6-GST -tagged proteins were then cleaved with TEV while dialyzing into 330 mM NaCl, PBS, 5 mM BME for 20 hours at 4 °C. […] Protein concentration was measured at an absorbance of 595 nm with the Bio-rad Protein Assay Kit II using bovine serum albumin as a standard. […]
Fluorescence Polarisation Binding Assay
The binding properties of the peptides were assessed using a biophysical FP assay. […] All FP measurements were performed on a microplate reader (CLARIOstar) in black 384-well microplates with 20 μL of sample solution per well. […]
was added and serially diluted from 10 μM to 9 pM. […] Plates were placed in a PerkinElmer Victor X5 plate reader with excitation measured at 531 nm and emission measured at 595 nm. […]

MDM2 (1–138) = molecular target: T2, MDM2 (1–138) (Homo sapiens, UniProt Q00987); assay: Fluorescence polarisation direct binding assay, MDM2; details: direct FP binding; 10 nM FITC peptide in Tris buffer pH 7.6; protein serially diluted 10 μM to 9 pM; 3 h, room temperature; quadratic ligand depletion fit; n = 3
T2 construct: His6-GST (TEV-cleavable) (N, cleaved yes); made in house; host or cells: E. coli Rosetta 2(DE3)pLacI
Experimental: The binding properties of the peptides were assessed using a biophysical FP assay. Specifically, a direct binding assay was conducted to calculate the Kd values of the fluorescent peptide ligands binding to the target proteins. Fluorescently labelled peptides were tested for binding to MDM2 (1-138) and MDMX (1-134). […] All FP measurements were performed on a microplate reader (CLARIOstar) in black 384-well microplates with 20 μL of sample solution per well.
was added and serially diluted from 10 μM to 9 pM. Peptide (10 nM in Tris buffer pH 7.6) was then added to all wells and mixed. The sample were left to incubate at room temperature for 3 hours. Plates were placed in a PerkinElmer Victor X5 plate reader with excitation measured at 531 nm and emission measured at 595 nm. The raw data was normalized using baseline correction, where the baseline was defined as the fluorescence polarisation measured in the absence of peptide. Normalised data were then plotted in Prism 7.0 and fitted by using the quadratic ligand depletion model (Equation S3).
Y is the fluorescent polarisation signal measured at each datapoint. […]

[1] = Circular dichroism spectroscopy, percentage helicity; type: physicochemical; details: CD in PBS pH 7.4, room temperature; from MRE at 222 nm, equations of Luo and Baldwin; peptides analysed at 25 μM and 50 μM
Experimental: Following the successful synthesis of the diyne peptide 4, it was important to identify the effect of the modified staple on the α-helical nature of the peptide. The effectiveness of the diyne staple as an α-helical constraint was assessed by CD. Experiments were set out to directly compare the diyne stapled peptide 4 to the alkene stapled peptides (cis-2 and trans-3), with the linear peptide 1 employed as a control. CD was performed at two concentrations to investigate whether peptide concentration influenced helicity, as coiled-coil structures are known to increase helicity.[25] Peptide concentrations were quantified using a NanoDrop™ One Microvolume UV-Vis spectrophotometer using the UV absorption of the peptides at 280 nm.[26] Extinction coefficients of the peptides were calculated from Trp and Tyr residues and the Beer–Lambert law employed to calculate the concentrations.
Each of the peptides (1–4) were analysed at 25 μM and 50 μM in phosphate buffered saline (PBS, pH 7.4) (Fig. 3). CD spectra were measured from 190–260 nm and the characteristic α-helical negative maxima examined for their intensity at 208 nm and 222 nm.[27] […] This is to be expected due to the random coil nature of 1. […] Helicity calculations were performed following conversion of the measured degrees of ellipticity (θ) data to mean residue ellipticity (MRE) (eqn (S1), ESI ^†). […]
Cell Permeability Fluorescence Assay […]

T2 sequence (Q00987 1-138): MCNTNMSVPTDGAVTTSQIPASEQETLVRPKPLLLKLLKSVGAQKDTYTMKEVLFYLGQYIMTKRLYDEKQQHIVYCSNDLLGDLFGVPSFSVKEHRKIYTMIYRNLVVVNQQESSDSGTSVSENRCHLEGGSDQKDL

Row | percentage helicity [1] [%] | Compound | further results
1 | – | CC(C)C[C@H](NC(=O)CCCCCNC(=S)Nc1ccc2c(c1)C(=O)OC21c2ccc(O)cc2Oc2cc(O)ccc21)C(=O)N[C@H](C(=O)N[C@@H](Cc1ccccc1)C(=O)N[C@@H](CCC(=O)O)C(=O)N[C@@H](Cc1c[nH]cn1)C(=O)N[C@@H](Cc1ccc(O)cc1)C(=O)N[C@@H](Cc1c[nH]c2ccccc12)C(=O)N[C@@H](C)C(=O)N[C@@H](CCC(N)=O)C(=O)N[C@@H](CC(C)C)C(=O)N[C@H](C(=O)N[C@@H](CO)C(N)=O)[C@@H](C)O)[C@@H](C)O [1FITC] ({FITC-Ahx}-LTFEHYWAQLTS-NH2) | Kd (MDMX (1–134)): 20.1 ± 0.23 nM
2 | – | CC(C)C[C@H](NC(=O)CCCCCNC(=S)Nc1ccc2c(c1)C(=O)OC21c2ccc(O)cc2Oc2cc(O)ccc21)C(=O)N[C@H](C(=O)N[C@@H](Cc1ccccc1)C(=O)N[C@@]1(C)CCCCCC#CC#CCCCCC[C@@](C)(C(=O)N[C@@H](CO)C(=O)N[C@@H](C)C(=O)N[C@@H](C)C(N)=O)NC(=O)[C@H](CC2CCC2)NC(=O)[C@H](CCC(N)=O)NC(=O)[C@H](C)NC(=O)[C@H](Cc2c[nH]c3ccccc23)NC(=O)[C@H](Cc2ccc(O)cc2)NC(=O)[C@H](CCC(=O)O)NC1=O)[C@@H](C)O [4FITC] | Kd (MDM2 (1–138)): 1.39 ± 0.08 nM
3 | 48 | Ac-LTFR8EYWAQ(Cba)S5SAA-NH2 (sidechain bridge or staple) [compound 2, i, i + 7 alkene stapled peptide ATSP-7041 (2/3), cis-isomer, acetylated] | –
4 | 59 | Ac-LTFS7EYWAQ(Cba)S7SAA-NH2 (sidechain bridge or staple) [compound 4, i, i + 7 diyne-girder stapled peptide analogue of ATSP-7041, acetylated] | –
